From PubChem BioAssay (NCI)
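Cultured in 96-well plates, cells were exposed to test compound for 48 hours across five concentrations. GI50: concentration for 50% inhibition of growth. Definition used: TGI = concentration required for complete inhibition of growth.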 Where a SMILES comes first, the peptide text is derived from it. The star is where a group is joined. Boc = CC(C)(C)OC(=O)*; OBn = c1ccc(CO*)cc1

Legend:
Test in all cases: NCI tumour cell line growth inhibition, 48 h
HCT-15 colon = tested on: HCT-15 colon
NCI-H226 lung = tested on: NCI-H226 lung
HS 578T breast = tested on: HS 578T breast
KM12 colon = tested on: KM12 colon
COLO 205 colon = tested on: COLO 205 colon
MOLT-4 leukemia = tested on: MOLT-4 leukemia
RPMI-8226 leukemia = tested on: RPMI-8226 leukemia
CAKI-1 renal = tested on: CAKI-1 renal
TK-10 renal = tested on: TK-10 renal
SNB-19 CNS = tested on: SNB-19 CNS

Structure (SMILES)	TGI (HCT-15 colon) [µM]	TGI (NCI-H226 lung) [µM]	TGI (HS 578T breast) [µM]	TGI (KM12 colon) [µM]	TGI (COLO 205 colon) [µM]	TGI (MOLT-4 leukemia) [µM]	TGI (RPMI-8226 leukemia) [µM]	TGI (CAKI-1 renal) [µM]	TGI (TK-10 renal) [µM]	TGI (SNB-19 CNS) [µM]	GI50 (HCT-15 colon) [µM]	GI50 (NCI-H226 lung) [µM]	GI50 (HS 578T breast) [µM]	GI50 (KM12 colon) [µM]	GI50 (COLO 205 colon) [µM]	GI50 (MOLT-4 leukemia) [µM]	GI50 (RPMI-8226 leukemia) [µM]	GI50 (CAKI-1 renal) [µM]	GI50 (TK-10 renal) [µM]	GI50 (SNB-19 CNS) [µM]
CC(=O)c1ccccc1NS(=O)(=O)c1ccc2nc(C)n(NS(=O)(=O)c3ccccc3C(C)=O)c(=O)c2c1	> 100	> 100	> 100	> 100	> 100	> 100	> 100	> 100	> 100	> 100	–	–	–	–	–	–	–	–	–	–
S=C(c1c[nH]c2ccccc12)N1CCCCC1	> 100	> 100	> 100	> 100	> 100	> 100	> 100	> 100	> 100	> 100	–	–	–	–	–	–	–	–	–	–
Oc1ccccc1-c1nn2c(CCCCCCCCc3nnc4sc(-c5ccccc5O)nn34)nnc2s1	> 100	> 100	> 100	> 100	> 100	51.1	> 100	> 100	> 100	> 100	–	–	–	–	–	–	–	–	–	–
CCOP(C)(=O)/C(Cc1ccc(OC)c(OC)c1)=N\O (stereo unspecified)	> 100	> 100	> 100	> 100	> 100	> 100	> 100	> 100	> 100	> 100	–	–	–	–	–	–	–	–	–	–
O[C@H]1[C@H](O)[C@@H](Cn2nnc(-c3ccccc3)c2-c2ccccc2)OCO[C@@H]1Cn1nnc(-c2ccccc2)c1-c1ccccc1	11.8	> 45.4	33.2	11.6	12.2	> 30.4	5.79	14.2	19	55.4	–	–	–	–	–	–	–	–	–	–
O=S(=O)(O)c1ccccc1N=Nc1ccc(N=Nc2c(O)ccc3ccccc23)c(S(=O)(=O)O)c1	> 100	> 100	> 100	> 100	> 100	> 100	> 100	> 100	> 100	> 100	–	–	–	–	–	–	–	–	–	–
Cc1cc(C)c2c(=O)cc(-c3ccc4ccccc4c3)[nH]c2n1	> 100	> 100	> 100	> 52.7	48.1	12.9	27.8	> 100	> 100	> 100	–	–	–	–	–	–	–	–	–	–
C[N+](C)(C)C(C1=CCCC1=O)c1ccccc1 (stereo unspecified)	41.5	> 100	66.3	49.1	> 100	58.3	44.2	63.9	> 100	> 100	–	–	–	–	–	–	–	–	–	–
COc1cccc(C=C2N=C(C)N(n3c(-c4ccccc4)nc4ccccc4c3=O)C2=O)c1	> 100	> 100	> 100	> 100	> 100	> 100	> 100	> 100	> 100	> 100	–	–	–	–	–	–	–	–	–	–
C=CCn1c(-c2ccc(Cl)cc2Cl)csc1=Nc1c(C)n(C)n(-c2ccccc2)c1=O	30	33	44.7	29.3	25.6	18.6	> 46.3	31.7	25.7	24.7	–	–	–	–	–	–	–	–	–	–
CC(=O)C1=C(C)N(c2ccccc2)C2(O)C=CC(=O)C3=C(O)c4ccccc4C(=O)C312 (stereo unspecified)	> 100	59.2	> 100	40.3	36.8	> 100	> 100	33.3	46.2	38.6	–	–	–	–	–	–	–	–	–	–
O=C(c1ccccc1)c1nn(-c2ccccc2)c2nc3nc(-c4ccccc4)cc(=O)n3nc12	> 100	> 100	> 100	82.1	64.1	49.3	50.8	> 100	> 100	> 100	36.3	47.4	44.6	28.3	26.8	21.8	21.4	68	40.3	42.7
NC(N)=NS(=O)(=O)c1ccc(NC(=O)c2ccc3nc4ccccc4c(N)c3c2)cc1	> 100	> 100	> 100	> 100	> 100	> 100	> 100	> 100	> 100	> 100	–	–	–	–	–	–	–	–	–	–
CC(C)CC(NC(=O)C(Cc1ccccc1)NC(=O)C(Cc1ccccc1)NC(=O)OC(C)(C)C)C(=O)OCc1ccccc1 (stereo not drawn) (Boc-Phe-Phe-Leu-OBn; configuration not given here)	> 100	> 100	> 100	> 100	> 100	> 100	> 100	> 100	> 100	> 100	–	–	–	–	–	–	–	–	–	–
COc1cc(Nc2nc3ccccc3nc2C(C)C)cc(OC)c1OC	> 100	> 100	> 100	> 100	> 100	> 100	> 100	> 100	> 100	> 100	–	–	–	–	–	–	–	–	–	–
Cc1cccc(C(=O)O)c1CC1NCCC2c3ccccc3NC12 (stereo unspecified)	> 100	> 100	> 100	> 100	> 100	> 100	> 100	> 100	> 100	> 100	–	–	–	–	–	–	–	–	–	–
NC(=O)C1N=NSC1NC(=O)c1ccc([N+](=O)[O-])cc1 (stereo unspecified)	> 100	> 100	> 100	> 100	> 100	> 100	> 100	> 100	> 100	> 100	–	–	–	–	–	–	–	–	–	–
COc1ccc(N(C(=O)NCCO)c2ccccc2)cc1	> 100	> 100	> 100	> 100	> 100	> 100	> 100	> 100	> 100	> 100	–	–	–	–	–	–	–	–	–	–

Structure (SMILES)	TGI (HCT-15 colon) [µM]	TGI (NCI-H226 lung) [µM]	TGI (HS 578T breast) [µM]	TGI (KM12 colon) [µM]	TGI (COLO 205 colon) [µM]	TGI (MOLT-4 leukemia) [µM]	TGI (RPMI-8226 leukemia) [µM]	TGI (CAKI-1 renal) [µM]	TGI (TK-10 renal) [µM]	TGI (SNB-19 CNS) [µM]	GI50 (HCT-15 colon) [µM]	GI50 (NCI-H226 lung) [µM]	GI50 (HS 578T breast) [µM]	GI50 (KM12 colon) [µM]	GI50 (COLO 205 colon) [µM]	GI50 (MOLT-4 leukemia) [µM]	GI50 (RPMI-8226 leukemia) [µM]	GI50 (CAKI-1 renal) [µM]	GI50 (TK-10 renal) [µM]	GI50 (SNB-19 CNS) [µM]
COc1ccc(/C=C2\CN(C)CC3C2=NN(c2ccccc2)C3c2ccc(OC)cc2)cc1 (stereo unspecified)	> 100	> 100	> 100	> 100	> 100	> 100	> 100	> 100	91.8	> 100	–	–	–	–	–	–	–	–	–	–
CS/C=C\C(=O)O[C@H]1C[C@@H]2[C@@H](O)c3occ(C)c3C[C@]2(C)[C@@H](C)C1	95.1	28.7	71.5	> 100	35.6	56.3	79.9	> 100	> 100	> 100	–	–	–	–	–	–	–	–	–	–
Cc1nnc([C@@]2(C)CC[C@H]3[C@@H](CCC4=CC(=O)CC[C@@]43C)[C@@H]2CC#N)o1	> 100	> 100	> 100	> 100	> 100	> 100	> 100	> 100	> 100	> 100	–	–	–	–	–	–	–	–	–	–
Nc1[nH]c(=S)c2c(N)n[nH]c2c1C(=O)Nc1ccc(Cl)cc1	> 100	> 100	> 100	> 100	> 100	> 100	> 100	> 100	> 100	> 100	–	–	–	–	–	–	–	–	–	–
Nc1c2c(nc3ccccc13)CCCc1ccccc1-2	35.5	45.4	52	31.2	24.4	> 100	30.4	40.9	18.8	52.9	–	–	–	–	–	–	–	–	–	–
CC[C@H]1C=CCC[C@@]2(C[C@@H]3CC[C@@H]4[C@H](C(=O)OCCCCCCCCCCCCCCCC(=O)N(CCCNC(C)=O)C[C@H](CCNC(C)=O)OC(C)=O)[C@]5(CCC[C@@H](C)O5)NC(=[N+]34)N2)O1	2.78	1.88	1.72	1.75	0.955	1.66	0.242	1.86	2.07	2.22	–	–	–	–	–	–	0.0406	–	–	–
CCN(CC)CCNC(=O)c1nn(-c2ccc(Cl)cc2)c2c1CCc1cc(OC)ccc1-2	7.81	24.2	13.8	19.5	6.42	28.5	8.72	19.9	23.8	23.2	–	–	–	–	–	–	–	–	–	–
CC(=O)OC1OC(c2ccoc2)C[C@@]12C1CCC3O[C@]3(C)[C@]1(C)C[C@H](OC(C)=O)[C@H]2C (stereo partly specified)	> 75	> 75	> 75	> 75	> 75	> 75	> 75	> 75	> 75	> 75	–	–	–	–	–	–	–	–	–	–
CC(=O)OCCOCCN1CCN(c2c(O)c3c(c(O)c2Cl)C(=O)C=CC3=O)CC1	1.23	5.89	7.59	4.92	0.68	2.51	1.42	0.878	1.62	6.82	–	–	–	–	–	–	–	–	–	–
CNc1nc2c(C)ccc3[nH]c(N(C)C)nc3c-2n1	> 100	> 100	> 100	> 100	> 100	> 100	61.2	> 100	> 100	65	–	–	–	–	–	–	–	–	–	–
CC(C)(O)CCc1ccc(O)c2c(=O)c3c(O)c4c(cc3oc12)O[C@H]1OC=C[C@@]41O	14.6	0.162	41.6	11.3	0.378	0.422	> 33.6	< 0.0318	> 100	> 59.5	–	–	–	–	–	–	–	–	–	–
Cc1nc2ccccc2n1Cc1nnc2n1N=C(c1ccccc1)CS2	> 100	> 100	> 100	> 100	> 100	> 100	> 100	> 100	> 100	> 100	–	–	–	–	–	–	–	–	–	–
NC(=O)C1CCCN1C(=O)N(CCCl)N=O (stereo unspecified)	> 100	> 100	> 100	> 100	> 100	> 100	> 100	> 100	> 100	> 100	–	–	–	–	–	–	–	–	–	–
COCn1c(C)c(C)c2c(=O)oc(C)nc21	> 100	> 100	> 100	> 100	> 100	> 100	> 100	45	> 100	> 100	–	–	–	–	–	–	–	–	–	–
N=C(N)SCc1ccc(N=C=S)cc1	24.6	34.6	42.1	27.6	28.2	> 100	> 100	25.4	28.1	26.7	–	–	–	–	–	–	–	–	–	–
C/C(=C1\C(=O)C(c2ccccc2)N(c2ccccc2)C1=O)c1ccc(Cl)cc1 (stereo unspecified)	43.6	43	40.9	57.1	32.8	> 100	38.1	48.4	52.5	32.7	–	–	–	–	–	–	–	–	–	–
NC(C(=O)OC(=O)c1ccccc1)C(=O)OC(=O)c1ccccc1	> 100	> 100	> 100	> 100	> 100	> 100	> 100	> 100	> 100	> 100	–	–	–	–	–	–	–	–	–	–
